These results are taken from US11147778B2, “Siderophore-polymer conjugates for increasing bacterial sensitivity to antibiotics” (Wisconsin Alumni Research Foundation, priority 2016, dated 2021).

Like-named read-outs stand apart in the source and are kept apart here.

Experiment [1] concerns P. aeruginosa PAO1. Description: Broth microdilution MIC / FICI. In kind it is cell-based. As to conditions: Pseudomonas aeruginosa. The method, then:
(§1) Antimicrobial efficacy was assessed by the broth microdilution assay in accordance with NCCLS guidelines (Coyle, Marie B. Manual of antimicrobial susceptibility testing. American Society for Microbiology, 2005). Organisms were grown overnight on non-selective MHA medium in order to obtain single colonies. Three to five morphologically distinct colonies were touched with a sterile pipet tip and transferred to a culture tube containing MHB (4 mL), and the broth culture was incubated at 37° C. until its turbidity matched a 0.5 McFarland Standard. The inoculum was then diluted 1:20 in sterile water, followed by a 1:10 dilution when inoculating wells of a 96-well plate. […] For combinations, the fractional inhibitory concentration index (FICI) was calculated using the following equation: [formula]
Background: Broth dilution looks for growth in wells or tubes with falling amounts of substance.

The subject of experiment [2] is P. aeruginosa ATCC 27853. Description: Broth microdilution MIC / FICI. In kind it is cell-based. As to conditions: Pseudomonas aeruginosa, ATCC27853. Here is the method: as §1
The test system of another experiment is E. coli ATCC 25922. Description: Broth microdilution MIC / FICI. In kind it is cell-based. As to conditions: Escherichia coli, ATCC25922. The method, then: as §1
In experiment [3] the test system is P. aeruginosa PAO1. Description: Disk diffusion, zones of inhibition. In kind it is cell-based, Pseudomonas aeruginosa. The method, then:
(§2) Single colonies were grown in MHB to match a 0.5 McFarland standard. A sterile cotton swab was dipped into the various MDR strain inoculums and spread evenly over the surface of the agar plates. Purchased antibiotic-containing disks at fixed concentrations (Table 4) were placed on the surface of each plate and incubated overnight at 37° C. Zones of inhibition were measured the following morning. Measurements included the diameter (d) of the antibiotic disk (6 mm) and are reported in terms of diameters and areas. […] Typically for diameters, R<10, I 11-15, and S>15 where R=resistance, I=intermediate resistance, and S=susceptible.

Experiment [4] has as its system P. aeruginosa MDR strain 3072. Description: Disk diffusion, zones of inhibition. Format: cell-based, Pseudomonas aeruginosa. The method, then: as §2
For orientation: In agar diffusion tests the substance spreads into inoculated agar from a disc or well.

The test system of experiment [5] is P. aeruginosa ATCC 27853. Description: Disk diffusion, zones of inhibition. Format: cell-based, Pseudomonas aeruginosa. As to conditions: for zone of inhibition, A: same disks and plates. The method, then:
as §2

Experiment [6] has as its system P. aeruginosa MDR strain 24530. The experiment can be described thus: Disk diffusion, zones of inhibition. Format: cell-based, Pseudomonas aeruginosa. Here is the method:
as §2

The test system of experiment [7] is P. aeruginosa reference strains (ATCC 27853 and PAO1). The experiment can be described thus: Dose response of growth (OD600) to F127-(DFO-Ga)2/ERY. As to conditions: 50 μg/mL ERY alone. Format: cell-based, Pseudomonas aeruginosa.
In experiment [8] the test system is MDR strains (2638, 3072, and 24530) of P. aeruginosa. The experiment can be described thus: Growth inhibition by F127-(DFO-Ga)2/ERY, MDR strains. In kind it is cell-based, Pseudomonas aeruginosa. As to conditions: 244 μM F127-(DFO-Ga)2 and/or 50 μg/mL ERY. Here is the method:
At time points of 0, 1, 2, and 4 hours, a small aliquot was removed from the broth culture, logarithmically diluted in M9 salts, and then spread onto cation-adjusted Mueller-Hinton agar plates. After overnight incubation at 37° C., colonies were counted and the number of CFU/mL was calculated.

Another experiment relates to P. aeruginosa MDR 3072. Description: Broth microdilution MIC / FICI. In kind it is cell-based. As to conditions: Pseudomonas aeruginosa, MDR3072. Here is the method:
as §1, with “[formula]” left out

A further experiment deals with P. aeruginosa MDR 2638. Description: Broth microdilution MIC / FICI. In kind it is cell-based. As to conditions: Pseudomonas aeruginosa, MDR2638. The method, then: as §1, with “[formula]” left out
For a further experiment, the system named is P. aeruginosa MDR 24530. The experiment can be described thus: Broth microdilution MIC / FICI. As to conditions: Pseudomonas aeruginosa, MDR24530. Format: cell-based. Here is the method: as §1, with “[formula]” left out
The mark [9] stands for this setting: P. aeruginosa PAO1, Example 9, read-out: MIC (Table 7, agent alone).
[10] abbreviates: P. aeruginosa ATCC 27853, Example 9, read-out: MIC (Table 7, agent alone).
[11] abbreviates: E. coli ATCC 25922, Example 9, read-out: MIC (Table 7, agent alone).
The mark [12] stands for this setting: E. coli ATCC 25922, antibiotic alone, Table 3, read-out: MIC.
Where [13] appears, read: Pseudomonas aeruginosa, PAO1, disks NVB 30 μg, ERY 15 μg, RIF 5 μg, VAN 30 μg, MHA with or without 256 μM DG-F125, includes 6 mm disk, read-out: zone of inhibition, d.
The mark [14] stands for this setting: Pseudomonas aeruginosa, 3072, disks NVB 30 μg, ERY 15 μg, RIF 5 μg, VAN 30 μg, MHA with or without 256 μM DG-F125, includes 6 mm disk, read-out: zone of inhibition, d.
The mark [15] stands for this setting: Pseudomonas aeruginosa, ATCC27853, 27853, disks NVB 30 μg, ERY 15 μg, RIF 5 μg, VAN 30 μg, MHA with or without 256 μM DG-F125, includes 6 mm disk, read-out: zone of inhibition, d.
Setting [16] is: Pseudomonas aeruginosa, 24530, disks NVB 30 μg, ERY 15 μg, RIF 5 μg, VAN 30 μg, MHA with or without 256 μM DG-F125, includes 6 mm disk, read-out: zone of inhibition, d.
Where [17] appears, read: PAO1, antibiotic alone, Table 3, read-out: MIC.
The mark [18] stands for this setting: MDR 3072, antibiotic alone, read-out: MIC.
[19] abbreviates: MDR 2638, antibiotic alone, read-out: MIC.
Where [20] appears, read: MDR 24530, antibiotic alone, read-out: MIC.
Where [21] appears, read: Pseudomonas aeruginosa, read-out: zone of inhibition, d.

Regarding `CC[C@H]1OC(=O)[C@H](C)[C@@H](O[C@H]2C[C@@](C)(OC)[C@@H](O)[C@H](C)O2)[C@H](C)[C@@H](O[C@@H]2O[C@H](C)C[C@H](N(C)C)[C@H]2O)[C@](C)(O)C[C@@H](C)C(=O)[C@H](C)[C@@H](O)[C@]1(C)O` [ERY, erythromycin], the MIC (usually the lowest concentration found to suppress growth) in the experiment with P. aeruginosa PAO1 [1] (PAO1) was 256 µg/mL; with P. aeruginosa PAO1 [1] (setting [9]), greater than 128 µg/mL; with P. aeruginosa ATCC 27853 [2], 256 µg/mL; in the experiment on P. aeruginosa ATCC 27853 [2] (setting [10]), greater than 128 µg/mL; in the experiment with E. coli ATCC 25922 (setting [11]) it was 32 µg/mL; in the experiment on E. coli ATCC 25922 (setting [12]), 32 µg/mL. For the same molecule, the minimum inhibitory concentration (MIC) in the experiment with P. aeruginosa MDR 3072, with P. aeruginosa MDR 2638 and in the experiment with P. aeruginosa MDR 24530 was 512 µg/mL in each case. The “zone of inhibition, A” value with P. aeruginosa PAO1 [3] (PAO1, same disks and plates) turned out to be 64 mm^2; in experiment [4] (3072, same disks and plates), 0 mm^2; with P. aeruginosa ATCC 27853 [5] (27853), 95 mm^2; in [6] (24530, same disks and plates), 0 mm^2. Further, the zone of inhibition (commonly the extent of the growth-free halo in a diffusion test) at 15 µg/disc with P. aeruginosa PAO1 [3] (setting [13]) was 9 mm; in experiment [4] (setting [14]), 0 mm; in the experiment on P. aeruginosa ATCC 27853 [5] (setting [15]) it was 11 mm; in experiment [6] (setting [16]) it was 0 mm. Further, the “A of region where some growth is still visible (in parentheses)” value is recorded as “(283) mm^2” in experiment [4] (3072, same disks and plates); “(133) mm^2” in experiment [6] (24530, same disks and plates). Moreover, the “d of region where some growth is still visible (in parentheses)” value in experiment [4] (3072, same disks and plates) is “(19) mm”; in experiment [6] (24530, same disks and plates) it was “(13) mm”. In addition, the “reduction in the OD600 compared to the positive control” value in experiment [7] is recorded as “approximately 40%”. Besides, the bacterial growth entry in experiment [8] is “similarly ineffective”.
Regarding `CO[C@@H]1[C@@H](OC(N)=O)[C@@H](O)[C@H](Oc2ccc3c(O)c(NC(=O)c4ccc(O)c(CC=C(C)C)c4)c(=O)oc3c2C)OC1(C)C` [NVB, novobiocin sodium], the minimal inhibitory concentration (MIC) in the experiment with P. aeruginosa PAO1 [1] (setting [9]) is greater than 128 µg/mL; in the experiment on P. aeruginosa PAO1 [1] (setting [17]), greater than 512 µg/mL; in the experiment with P. aeruginosa ATCC 27853 [2], 128 µg/mL; in the experiment on P. aeruginosa ATCC 27853 [2] (setting [10]) it was greater than 128 µg/mL; in the experiment on E. coli ATCC 25922 (setting [11]) it was 48 µg/mL; in the experiment with E. coli ATCC 25922 (setting [12]) it was 32 µg/mL. The minimum inhibitory concentration (MIC) in the experiment with P. aeruginosa MDR 3072 (setting [18]), in the experiment on P. aeruginosa MDR 2638 (setting [19]) and in the experiment with P. aeruginosa MDR 24530 (setting [20]) was greater than 512 µg/mL in each case. Also, the “zone of inhibition, A” value with P. aeruginosa PAO1 [3] (PAO1, same disks and plates) is reported as 0 mm^2; in [4] (3072, same disks and plates), 0 mm^2; with P. aeruginosa ATCC 27853 [5] (27853) it was 44 mm^2; in [6] (24530, same disks and plates) it was 0 mm^2. Further, the zone of inhibition at 30 µg/disc amounted to 0 mm in the experiment on P. aeruginosa PAO1 [3] (setting [13]), 0 mm in experiment [4] (setting [14]), 7.5 mm in the experiment with P. aeruginosa ATCC 27853 [5] (setting [15]) and 0 mm in experiment [6] (setting [16]).
Turning to `CO[C@H]1/C=C/O[C@@]2(C)Oc3c(C)c(O)c4c(O)c(c(/C=N/N5CCN(C)CC5)c(O)c4c3C2=O)NC(=O)/C(C)=C\C=C\[C@H](C)[C@H](O)[C@@H](C)[C@@H](O)[C@@H](C)[C@H](OC(C)=O)[C@@H]1C` [RIF, rifampicin], the MIC with P. aeruginosa PAO1 [1] (setting [17]) turned out to be 16 µg/mL; in the experiment with P. aeruginosa ATCC 27853 [2] (ATCC 27853, antibiotic alone, Table 3, read-out: MIC), 16 µg/mL; in the experiment on E. coli ATCC 25922 (setting [12]), 4 µg/mL; in the experiment with P. aeruginosa MDR 3072 (setting [18]) it was 16 µg/mL; in the experiment with P. aeruginosa MDR 2638 (setting [19]) it was 8 µg/mL; with P. aeruginosa MDR 24530 (setting [20]), 16 µg/mL. In addition, the “zone of inhibition, A” value in the experiment with P. aeruginosa PAO1 [3] (PAO1, same disks and plates) is 33 mm^2; in experiment [4] (3072, same disks and plates) it was 0 mm^2; in the experiment on P. aeruginosa ATCC 27853 [5] (27853), 0 mm^2; in experiment [6] (24530, same disks and plates) it was 0 mm^2. For the same molecule, the zone of inhibition at 5 µg/disc was 6.5 mm in the experiment with P. aeruginosa PAO1 [3] (setting [13]), 0 mm in experiment [4] (setting [14]), 0 mm in the experiment with P. aeruginosa ATCC 27853 [5] (setting [15]) and 0 mm in [6] (setting [16]).
As to `CN[C@H](CC(C)C)C(=O)N[C@H]1C(=O)N[C@@H](CC(N)=O)C(=O)N[C@H]2C(=O)N[C@H]3C(=O)N[C@H](C(=O)N[C@H](C(=O)O)c4cc(O)cc(O)c4-c4cc3ccc4O)[C@H](O)c3ccc(c(Cl)c3)Oc3cc2cc(c3O[C@@H]2O[C@H](CO)[C@@H](O)[C@H](O)[C@H]2O[C@H]2C[C@](C)(N)[C@H](O)[C@H](C)O2)Oc2ccc(cc2Cl)[C@H]1O` [VAN, vancomycin], the minimum inhibitory concentration (MIC) in the experiment on P. aeruginosa PAO1 [1] (PAO1) was greater than 1020 µg/mL; with P. aeruginosa ATCC 27853 [2] it was greater than 1020 µg/mL; in the experiment on E. coli ATCC 25922, 128 µg/mL; with P. aeruginosa MDR 3072, greater than 1020 µg/mL; in the experiment on P. aeruginosa MDR 2638 it was 512 µg/mL; with P. aeruginosa MDR 24530, 1020 µg/mL. The “A of region where some growth is still visible (in parentheses)” value with P. aeruginosa PAO1 [3] (PAO1, same disks and plates) stood at 64 mm^2. Further, the “d of region where some growth is still visible (in parentheses)” value in the experiment on P. aeruginosa PAO1 [3] (PAO1, same disks and plates) worked out at 9 mm. Further, the “zone of inhibition, A” value in the experiment with P. aeruginosa PAO1 [3] (PAO1, same disks and plates) is 0 mm^2; in [4] (3072, same disks and plates) it was 0 mm^2; in the experiment on P. aeruginosa ATCC 27853 [5] (27853), 0 mm^2; in experiment [6] (24530, same disks and plates), 0 mm^2. The zone of inhibition at 30 µg/disc in the experiment on P. aeruginosa PAO1 [3] (Pseudomonas aeruginosa, PAO1, read-out: zone of inhibition, d) was 0 mm; in experiment [4] (setting [21]) it was 0 mm; in the experiment on P. aeruginosa ATCC 27853 [5] (Pseudomonas aeruginosa, ATCC27853, read-out: zone of inhibition, d) it was 0 mm; in [6] (setting [21]), 0 mm.
